Assays:
Assay in all cases: KinomeScan kinase panel, single concentration 10 µM
Assay type in all cases: binding
[1] = molecular target: T1, KinomeScan kinase panel (Homo sapiens, UniProt Q9NY57); conditions: kinase YANK2; 10 µM; read-out: score (%)
T1 construct: purchased DiscoveRx (KinomeScan)

[2] = molecular target: T2, KinomeScan kinase panel (Homo sapiens, UniProt Q9H093); conditions: 10 µM
T2 construct: purchased DiscoveRx (KinomeScan)
T2 sequence (Q9H093 1-628): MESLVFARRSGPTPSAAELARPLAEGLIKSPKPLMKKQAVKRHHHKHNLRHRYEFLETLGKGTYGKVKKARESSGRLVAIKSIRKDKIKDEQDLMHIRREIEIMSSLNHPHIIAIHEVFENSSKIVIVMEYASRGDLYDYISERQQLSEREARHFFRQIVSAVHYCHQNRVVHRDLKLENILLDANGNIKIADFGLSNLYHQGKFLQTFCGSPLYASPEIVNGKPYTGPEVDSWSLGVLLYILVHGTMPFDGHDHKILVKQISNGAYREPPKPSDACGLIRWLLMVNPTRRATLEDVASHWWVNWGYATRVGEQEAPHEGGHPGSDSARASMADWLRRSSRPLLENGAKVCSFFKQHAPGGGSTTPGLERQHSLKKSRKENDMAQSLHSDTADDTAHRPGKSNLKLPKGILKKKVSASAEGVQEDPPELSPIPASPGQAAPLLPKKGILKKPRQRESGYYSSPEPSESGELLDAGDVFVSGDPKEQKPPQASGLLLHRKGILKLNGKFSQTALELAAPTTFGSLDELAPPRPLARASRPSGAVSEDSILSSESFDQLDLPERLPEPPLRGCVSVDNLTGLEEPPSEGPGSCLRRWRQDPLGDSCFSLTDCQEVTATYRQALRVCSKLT

[3] = molecular target: T3, KinomeScan kinase panel (Homo sapiens, UniProt Q96NX5); conditions: CAMK1G, 10 µM; read-out: score (%)
T3 construct: purchased DiscoveRx (KinomeScan)

[4] = molecular target: T4, KinomeScan kinase panel (Homo sapiens, UniProt P49759); conditions: CLK1, 10 µM; read-out: score (%)
T4 construct: purchased DiscoveRx (KinomeScan)

[5] = molecular target: T5, KinomeScan kinase panel (Homo sapiens, UniProt Q6P3R8); conditions: NEK5, 10 µM; read-out: score (%)
T5 construct: purchased DiscoveRx (KinomeScan)
T5 sequence (Q6P3R8 1-708): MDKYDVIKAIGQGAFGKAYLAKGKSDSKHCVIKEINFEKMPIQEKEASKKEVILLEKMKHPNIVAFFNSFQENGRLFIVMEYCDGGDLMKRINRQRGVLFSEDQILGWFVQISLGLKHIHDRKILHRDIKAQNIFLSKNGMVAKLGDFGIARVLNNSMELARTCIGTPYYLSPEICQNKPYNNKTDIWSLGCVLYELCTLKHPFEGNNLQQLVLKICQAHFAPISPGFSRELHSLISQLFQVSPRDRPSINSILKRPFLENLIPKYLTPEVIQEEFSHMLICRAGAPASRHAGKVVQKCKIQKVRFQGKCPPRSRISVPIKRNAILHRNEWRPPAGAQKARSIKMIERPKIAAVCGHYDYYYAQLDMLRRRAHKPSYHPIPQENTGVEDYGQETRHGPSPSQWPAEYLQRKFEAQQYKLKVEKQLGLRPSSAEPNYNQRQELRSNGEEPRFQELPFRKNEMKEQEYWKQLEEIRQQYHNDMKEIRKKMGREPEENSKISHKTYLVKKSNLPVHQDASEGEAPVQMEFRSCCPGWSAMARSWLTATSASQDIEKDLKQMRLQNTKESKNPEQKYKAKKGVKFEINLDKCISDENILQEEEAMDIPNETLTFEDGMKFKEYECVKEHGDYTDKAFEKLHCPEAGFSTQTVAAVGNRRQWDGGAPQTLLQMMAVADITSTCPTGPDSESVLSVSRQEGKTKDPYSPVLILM

[6] = molecular target: T6, KinomeScan kinase panel (Homo sapiens, UniProt Q13555); conditions: CAMK2G, 10 µM; read-out: score (%)
T6 construct: purchased DiscoveRx (KinomeScan)

[7] = molecular target: T7, KinomeScan kinase panel (Homo sapiens, UniProt P06213); conditions: INSR, 10 µM; read-out: score (%)
T7 construct: purchased DiscoveRx (KinomeScan)

[8] = molecular target: T8, KinomeScan kinase panel (Homo sapiens, UniProt Q9P2K8, S808G); conditions: GCN2(Kin.Dom.2.S808G), 10 µM; read-out: score (%)
T8 construct: purchased DiscoveRx (KinomeScan)

[9] = molecular target: T9, KinomeScan kinase panel (Homo sapiens, UniProt O15111); conditions: IKK-alpha, 10 µM; read-out: score (%)
T9 construct: purchased DiscoveRx (KinomeScan)
T9 sequence (O15111 1-745): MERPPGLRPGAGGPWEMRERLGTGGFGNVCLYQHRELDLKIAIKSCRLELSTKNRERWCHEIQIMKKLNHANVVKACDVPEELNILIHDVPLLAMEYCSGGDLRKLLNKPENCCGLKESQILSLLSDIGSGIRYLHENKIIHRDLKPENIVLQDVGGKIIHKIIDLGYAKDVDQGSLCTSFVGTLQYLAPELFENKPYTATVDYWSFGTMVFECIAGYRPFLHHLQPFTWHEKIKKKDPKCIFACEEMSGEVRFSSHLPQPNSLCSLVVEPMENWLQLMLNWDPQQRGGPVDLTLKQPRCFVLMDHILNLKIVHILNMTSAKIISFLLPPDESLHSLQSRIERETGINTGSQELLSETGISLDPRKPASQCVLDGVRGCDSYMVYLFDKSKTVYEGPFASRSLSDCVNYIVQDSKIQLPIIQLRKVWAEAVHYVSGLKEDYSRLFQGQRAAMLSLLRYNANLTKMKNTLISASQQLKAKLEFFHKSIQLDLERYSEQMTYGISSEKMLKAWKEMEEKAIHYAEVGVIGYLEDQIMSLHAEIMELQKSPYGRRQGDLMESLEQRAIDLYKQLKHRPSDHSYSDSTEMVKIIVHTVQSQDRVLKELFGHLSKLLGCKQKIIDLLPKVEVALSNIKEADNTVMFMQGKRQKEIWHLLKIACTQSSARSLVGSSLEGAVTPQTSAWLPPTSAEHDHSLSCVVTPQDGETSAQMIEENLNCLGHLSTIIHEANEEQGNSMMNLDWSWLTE

T6 sequence (Q13555 whole entry): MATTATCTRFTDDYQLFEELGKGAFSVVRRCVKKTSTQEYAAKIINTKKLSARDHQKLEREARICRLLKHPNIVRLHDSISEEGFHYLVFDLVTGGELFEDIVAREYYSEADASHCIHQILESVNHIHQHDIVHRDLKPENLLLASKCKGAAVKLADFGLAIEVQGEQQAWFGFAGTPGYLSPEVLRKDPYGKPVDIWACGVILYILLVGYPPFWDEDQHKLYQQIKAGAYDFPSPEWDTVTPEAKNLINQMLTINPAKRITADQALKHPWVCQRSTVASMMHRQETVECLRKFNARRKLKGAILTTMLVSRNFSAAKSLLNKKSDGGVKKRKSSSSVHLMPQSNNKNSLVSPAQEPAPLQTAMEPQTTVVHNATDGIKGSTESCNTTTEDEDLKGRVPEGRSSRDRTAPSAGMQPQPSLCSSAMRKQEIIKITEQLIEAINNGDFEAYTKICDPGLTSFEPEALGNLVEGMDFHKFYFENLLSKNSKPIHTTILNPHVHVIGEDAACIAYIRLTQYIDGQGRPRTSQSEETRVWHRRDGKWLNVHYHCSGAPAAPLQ
T1 sequence (Q9NY57 whole entry): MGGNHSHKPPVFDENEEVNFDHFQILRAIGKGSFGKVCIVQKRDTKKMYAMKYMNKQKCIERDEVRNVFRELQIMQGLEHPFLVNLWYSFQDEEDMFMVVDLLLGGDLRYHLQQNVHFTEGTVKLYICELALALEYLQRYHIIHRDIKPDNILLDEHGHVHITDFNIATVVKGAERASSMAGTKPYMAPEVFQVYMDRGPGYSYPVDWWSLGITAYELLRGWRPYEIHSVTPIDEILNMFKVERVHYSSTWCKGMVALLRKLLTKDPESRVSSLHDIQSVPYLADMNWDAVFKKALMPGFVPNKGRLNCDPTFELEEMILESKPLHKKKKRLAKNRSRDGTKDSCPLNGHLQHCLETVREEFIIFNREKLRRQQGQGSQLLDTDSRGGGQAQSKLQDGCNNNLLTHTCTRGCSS
T3 sequence (Q96NX5 whole entry): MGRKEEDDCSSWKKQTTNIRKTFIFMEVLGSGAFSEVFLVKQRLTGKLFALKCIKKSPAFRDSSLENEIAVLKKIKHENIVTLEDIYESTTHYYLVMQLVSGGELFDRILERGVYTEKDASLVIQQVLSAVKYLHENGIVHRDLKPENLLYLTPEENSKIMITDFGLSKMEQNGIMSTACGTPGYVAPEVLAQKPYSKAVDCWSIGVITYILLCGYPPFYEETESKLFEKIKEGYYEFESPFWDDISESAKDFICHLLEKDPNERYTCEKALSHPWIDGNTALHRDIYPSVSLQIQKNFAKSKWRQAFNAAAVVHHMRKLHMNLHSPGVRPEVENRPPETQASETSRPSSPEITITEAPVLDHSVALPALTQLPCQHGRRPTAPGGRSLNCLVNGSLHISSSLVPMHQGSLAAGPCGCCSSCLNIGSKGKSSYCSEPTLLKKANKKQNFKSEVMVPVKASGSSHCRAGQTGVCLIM
T4 sequence (P49759 whole entry): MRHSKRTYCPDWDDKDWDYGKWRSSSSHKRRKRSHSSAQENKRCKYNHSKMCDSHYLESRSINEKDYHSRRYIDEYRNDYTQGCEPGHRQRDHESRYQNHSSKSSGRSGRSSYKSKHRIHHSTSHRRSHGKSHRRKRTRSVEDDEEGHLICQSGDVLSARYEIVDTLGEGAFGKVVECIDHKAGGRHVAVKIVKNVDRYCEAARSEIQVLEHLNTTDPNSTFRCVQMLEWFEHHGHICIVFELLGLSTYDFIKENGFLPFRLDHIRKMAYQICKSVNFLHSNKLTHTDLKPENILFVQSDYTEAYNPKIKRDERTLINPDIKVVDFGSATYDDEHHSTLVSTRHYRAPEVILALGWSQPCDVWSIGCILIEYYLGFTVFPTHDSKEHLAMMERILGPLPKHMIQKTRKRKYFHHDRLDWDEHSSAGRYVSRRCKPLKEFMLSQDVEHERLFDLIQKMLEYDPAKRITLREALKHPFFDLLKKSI
T7 sequence (P06213 28-1382): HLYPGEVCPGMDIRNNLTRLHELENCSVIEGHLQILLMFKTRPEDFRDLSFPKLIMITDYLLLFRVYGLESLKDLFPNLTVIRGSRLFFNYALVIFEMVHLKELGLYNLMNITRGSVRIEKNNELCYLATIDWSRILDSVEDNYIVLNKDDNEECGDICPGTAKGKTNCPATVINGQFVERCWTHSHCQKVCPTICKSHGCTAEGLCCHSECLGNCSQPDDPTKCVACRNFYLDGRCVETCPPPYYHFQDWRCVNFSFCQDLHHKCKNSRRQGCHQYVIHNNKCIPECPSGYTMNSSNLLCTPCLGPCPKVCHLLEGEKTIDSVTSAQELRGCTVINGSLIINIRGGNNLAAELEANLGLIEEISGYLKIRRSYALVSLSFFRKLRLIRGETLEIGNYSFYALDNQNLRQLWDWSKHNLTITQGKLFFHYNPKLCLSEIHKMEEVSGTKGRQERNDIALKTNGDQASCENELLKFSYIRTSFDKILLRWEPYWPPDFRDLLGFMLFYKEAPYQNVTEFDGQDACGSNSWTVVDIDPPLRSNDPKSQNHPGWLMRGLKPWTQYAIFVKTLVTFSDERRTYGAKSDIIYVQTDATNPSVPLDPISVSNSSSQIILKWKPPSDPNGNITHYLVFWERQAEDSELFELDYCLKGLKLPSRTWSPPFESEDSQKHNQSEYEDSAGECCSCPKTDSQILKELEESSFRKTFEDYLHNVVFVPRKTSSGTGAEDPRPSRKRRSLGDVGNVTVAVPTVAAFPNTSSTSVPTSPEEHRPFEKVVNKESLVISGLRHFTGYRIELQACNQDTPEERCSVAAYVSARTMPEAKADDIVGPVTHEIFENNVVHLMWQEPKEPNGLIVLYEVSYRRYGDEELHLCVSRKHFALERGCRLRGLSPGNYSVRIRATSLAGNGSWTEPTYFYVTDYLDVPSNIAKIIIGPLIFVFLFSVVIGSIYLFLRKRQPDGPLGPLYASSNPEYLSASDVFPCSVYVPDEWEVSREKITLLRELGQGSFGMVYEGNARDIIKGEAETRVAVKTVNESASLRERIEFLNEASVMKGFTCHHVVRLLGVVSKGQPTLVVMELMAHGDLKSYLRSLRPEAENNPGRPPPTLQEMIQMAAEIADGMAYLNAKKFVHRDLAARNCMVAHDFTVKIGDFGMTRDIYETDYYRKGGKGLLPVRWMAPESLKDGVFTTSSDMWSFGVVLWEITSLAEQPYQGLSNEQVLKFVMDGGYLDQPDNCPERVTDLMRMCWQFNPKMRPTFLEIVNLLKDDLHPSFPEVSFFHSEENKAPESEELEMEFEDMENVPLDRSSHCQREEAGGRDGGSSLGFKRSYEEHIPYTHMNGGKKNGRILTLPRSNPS
T8 sequence (Q9P2K8 whole entry S808G): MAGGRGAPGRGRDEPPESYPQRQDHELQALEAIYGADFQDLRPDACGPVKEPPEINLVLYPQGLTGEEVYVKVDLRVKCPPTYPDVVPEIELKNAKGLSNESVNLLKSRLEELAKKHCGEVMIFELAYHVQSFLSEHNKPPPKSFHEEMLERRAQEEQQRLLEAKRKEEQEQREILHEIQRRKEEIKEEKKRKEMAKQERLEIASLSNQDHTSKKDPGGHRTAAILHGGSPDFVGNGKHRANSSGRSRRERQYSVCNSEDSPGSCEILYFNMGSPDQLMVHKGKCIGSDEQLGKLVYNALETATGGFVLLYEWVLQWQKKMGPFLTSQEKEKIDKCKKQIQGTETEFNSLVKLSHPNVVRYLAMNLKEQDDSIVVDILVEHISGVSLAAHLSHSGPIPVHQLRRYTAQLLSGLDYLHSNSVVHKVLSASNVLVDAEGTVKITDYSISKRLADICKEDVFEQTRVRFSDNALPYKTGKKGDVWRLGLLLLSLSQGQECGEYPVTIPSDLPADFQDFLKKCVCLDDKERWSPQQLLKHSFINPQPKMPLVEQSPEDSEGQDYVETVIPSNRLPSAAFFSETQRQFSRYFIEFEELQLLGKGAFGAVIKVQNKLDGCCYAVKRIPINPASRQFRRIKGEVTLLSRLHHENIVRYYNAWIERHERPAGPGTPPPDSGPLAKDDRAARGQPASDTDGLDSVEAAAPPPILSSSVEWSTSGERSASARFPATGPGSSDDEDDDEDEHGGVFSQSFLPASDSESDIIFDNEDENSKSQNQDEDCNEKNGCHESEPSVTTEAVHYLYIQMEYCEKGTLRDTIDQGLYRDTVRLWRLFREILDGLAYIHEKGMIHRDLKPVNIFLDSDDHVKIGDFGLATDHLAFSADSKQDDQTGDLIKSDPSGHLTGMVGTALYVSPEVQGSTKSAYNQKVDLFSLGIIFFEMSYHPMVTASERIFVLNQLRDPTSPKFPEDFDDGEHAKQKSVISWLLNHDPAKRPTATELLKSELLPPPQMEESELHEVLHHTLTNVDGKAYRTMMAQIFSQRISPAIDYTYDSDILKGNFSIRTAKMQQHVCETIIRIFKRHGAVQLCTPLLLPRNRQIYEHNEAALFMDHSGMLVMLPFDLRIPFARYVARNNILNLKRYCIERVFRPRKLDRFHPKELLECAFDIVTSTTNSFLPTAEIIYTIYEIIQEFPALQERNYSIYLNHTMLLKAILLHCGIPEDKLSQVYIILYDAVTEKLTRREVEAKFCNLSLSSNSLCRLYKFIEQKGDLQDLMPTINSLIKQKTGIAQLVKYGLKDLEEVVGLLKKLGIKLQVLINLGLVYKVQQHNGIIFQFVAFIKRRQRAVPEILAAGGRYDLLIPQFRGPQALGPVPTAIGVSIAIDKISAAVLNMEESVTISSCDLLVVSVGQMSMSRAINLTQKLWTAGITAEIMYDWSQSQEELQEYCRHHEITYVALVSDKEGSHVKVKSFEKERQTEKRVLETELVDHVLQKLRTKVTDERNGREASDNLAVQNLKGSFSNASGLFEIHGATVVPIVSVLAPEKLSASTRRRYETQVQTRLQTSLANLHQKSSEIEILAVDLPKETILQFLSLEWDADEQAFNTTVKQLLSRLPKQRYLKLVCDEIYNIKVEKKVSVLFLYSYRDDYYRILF

Row | Structure (SMILES) | remaining binding at 10 µM [1] [%] | score (%) ([2]; kinase SNARK) | remaining binding at 10 µM [3] [%] | remaining binding at 10 µM [4] [%] | remaining binding at 10 µM [5] [%] | remaining binding at 10 µM [6] [%] | remaining binding at 10 µM [7] [%] | remaining binding at 10 µM [8] [%] | remaining binding at 10 µM [9] [%] | score (%) ([2]; SNARK)
1 | CCN1CCN(Cc2ccc(NC(=O)c3ccc(C)c(NC(=O)c4cncc(-c5cccs5)c4)c3)cc2C(F)(F)F)CC1 [ALW-II-41-27] | > 30 | nb (Hits values higher than 30% were considered negative (no binding: nb)) | > 30 | 1.1 | > 30 | > 30 | 12 | 0.3 | 3.3 | 
2 | CCN1CCN(Cc2ccc(NC(=O)c3ccc(C)c(/C=C/c4cnc5[nH]ccc5c4Cl)c3)cc2C(F)(F)F)CC1 [HG-6-63-01, (E)-3-(2-(4-chloro-1H-pyrrolo[2,3-b]pyridin-5-yl)vinyl)-N-(4-((4-ethylpiperazin-1-yl)methyl)-3-(trifluoromethyl)phenyl)-4-methylbenzamide] | > 30 |  | > 30 | 27 | 7 | > 30 | > 30 | 0.95 | 0.75 | nb (Hits values higher than 30% were considered negative (no binding: nb))
3 | CCN1CCN(Cc2ccc(NC(=O)c3ccc(C)c(C#Cc4cccnc4)c3)cc2C(F)(F)F)CC1 [XMD15-44] | 100 | 99% | > 30 | 3.9 | 4.8 | > 30 | > 30 | 1.3 | 0 | 
